Assay results published in patent publication US10975126B1 (priority 2020, dated 2021).
No end group written: not given here.

Tested on: MERS-CoV
Format: cell-based, MERS-CoV (CoV/KOR/KNIH/002_05_2015) in Vero cells

SLTQINWTLLDLTYEMESLQQVVKALNEYYIDLKEL [Peptide 5]
inhibition of MERS-CoV / decrease in plaque formation (in words): strong inhibition
